# According to patent publication US20260199350A1, “FLAVONES, QUINOLINONES, QUINAZOLINONES, AND AURONES, AND USES IN CK2-MEDIATED DISEASES” (Salk Institute for Biological Studies, priority 2022, published 2026):
# Like-named read-outs stand apart in the source and are kept apart here.
# Key:
# [1] = test system: NF-κB; experiment: NF-κB-Luciferase reporter assay in THP-1 NF-κB-Lucia cells; assay type: cell-based, human; details: FIG. 4D
# Experimental: NF-κB-Luciferase reporter assay. THP-1 NF-κB-Lucia cells were plated at 10,000 cells per well with 10 ng/mL PMA. Three days later, media was removed and replaced with media containing LPS (1 μg/mL) and dilution series of compounds in flat bottom clear 96-well plates for 24 hours. A day later, 20 μL of media was transferred to a 96-well white plate and 50 μL of QuantiLuc Gold reagent (InvivoGen rep-qlcg5) was added per well; plate was mixed in the plate reader and luminescence was read using a Promega GloMax Reader.
# [2] = biological target: T1, CK2A1 (Homo sapiens, UniProt P68400); experiment: Radiometric kinase assay (Eurofins), CK2A1; assay type: biochemical
# T1 construct: purchased Eurofins
# T1 sequence (P68400 whole entry): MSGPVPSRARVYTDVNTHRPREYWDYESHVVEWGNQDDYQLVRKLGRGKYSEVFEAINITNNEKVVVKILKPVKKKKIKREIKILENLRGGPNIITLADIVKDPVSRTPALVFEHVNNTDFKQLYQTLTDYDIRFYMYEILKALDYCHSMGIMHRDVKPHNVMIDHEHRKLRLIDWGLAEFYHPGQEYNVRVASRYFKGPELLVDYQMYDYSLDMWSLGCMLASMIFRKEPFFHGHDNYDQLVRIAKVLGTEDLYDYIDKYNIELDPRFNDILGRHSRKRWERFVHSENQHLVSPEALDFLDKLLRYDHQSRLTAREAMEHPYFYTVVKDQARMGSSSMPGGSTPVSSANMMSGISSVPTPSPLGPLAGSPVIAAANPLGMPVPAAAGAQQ
# Description: FIGS. 4A-4F characterize flavones for in vitro and in-cell CK2 inhibition. […] Representative of two independent experiments. […] Nonlinear fit was used to calculate IC50. […] Nonlinear fit was used to calculate IC50. […] Nonlinear fit was used to calculate IC50. […] Normalized to DMSO, data are representative of three independent experiments.
# (§1) • ^1Radiometric kinase assay from Eurofins. Performed in astrocytes with a Promega Lumit IL-6 kit.
# [3] = biological target: T2, CK2A2 (Homo sapiens, UniProt P19784); experiment: Radiometric kinase assay (Eurofins), CK2A2; assay type: biochemical
# T2 construct: purchased Eurofins
# T2 sequence (P19784 whole entry): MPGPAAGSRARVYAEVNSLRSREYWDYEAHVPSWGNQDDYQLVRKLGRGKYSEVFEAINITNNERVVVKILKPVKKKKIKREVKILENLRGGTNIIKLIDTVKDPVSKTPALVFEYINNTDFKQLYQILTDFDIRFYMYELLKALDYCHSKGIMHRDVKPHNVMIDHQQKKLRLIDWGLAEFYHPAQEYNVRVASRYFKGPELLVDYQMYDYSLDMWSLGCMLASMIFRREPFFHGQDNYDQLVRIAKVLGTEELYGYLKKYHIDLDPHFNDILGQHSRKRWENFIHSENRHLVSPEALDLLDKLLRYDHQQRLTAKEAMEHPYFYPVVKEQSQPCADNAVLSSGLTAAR
# Description: as §1
# [4] = test system: IL-6 secretion; experiment: IL-6 secretion assay in astrocytes (Promega Lumit IL-6 kit); assay type: cell-based, human; details: Homo sapiens, Astrocyte, read-out: IL6-Inhib.
# Experimental: IL-6 secretion assay. HCAs were plated at 20,000 cells per well in white clear bottom 96-well plates. Two to three days later, media was removed and replaced with media containing 10 ng/mL IL1B and compound dilution series. Five hours later, plates were processed using the Lumit IL-6 Assay Kit (Promega W6030) according to the manufacturer's instructions.
# • ^1Radiometric kinase assay from Eurofins. Performed in astrocytes with a Promega Lumit IL-6 kit. A series of halogenated flavones was generated and assayed (Table 3).
# [5] = Aqueous solubility; assay type: physicochemical
# [6] = Table 8, quinazolinones, read-out: CK2A1 RAD IC50
# [7] = Table 8, quinazolinones, read-out: CK2A2 RAD IC50
# [8] = aqueous medium (not further specified), Table 8, read-out: Aqueous Solubility
# [9] = Table 3, halogenated flavones, read-out: CK2A1 RAD IC50
# [10] = Table 3, halogenated flavones, read-out: CK2A2 RAD IC50
# [11] = aqueous (not further specified), Table 3, read-out: Aqueous Solubility
# [12] = Table 11, aurones, read-out: CK2A1 RAD IC50
# [13] = Table 11, aurones, read-out: CK2A2 RAD IC50
# [14] = Table 11, read-out: Aqueous Solubility
# [15] = Table 10, aurones, read-out: CK2A1 IC50
# [16] = Table 10, aurones, read-out: CK2A2 IC50
smiles,measurement,setting,value
O=c1cc(-c2ccccc2)oc2cc(O)cc(O)c12 [chrysin],Activity in THP-1-NF-κB-Lucia monocytes,[1],No activity
O=c1[nH]c(-c2cc(Cl)c(O)c(Cl)c2)nc2c(Cl)cc(Cl)cc12 [JKT.807A],IC50,[2]; [6],0.91 µM
same,IC50,[3]; [7],> 5 µM
same,IC50,[4]; Table 8,> 10 µM
same,solubility,[5]; [8],126 µM
COc1ccc2c(=O)cc(-c3ccc(O)c(Br)c3)oc2c1Br [JKT.780A],IC50,[2]; [9],0.009 µM
same,IC50,[3]; [10],0.025 µM
same,IC50,[4]; Table 3,> 10 µM
same,solubility,[5]; [11],< 0.01 µM
O=c1[nH]c(-c2cc(F)c(O)c(F)c2)nc2c(Cl)cc(Cl)cc12 [JKT.808A],IC50,[2]; [6],2.98 µM
same,IC50,[3]; [7],1.62 µM
same,IC50,[4]; Table 8,> 10 µM
same,solubility,[5]; [8],189 µM
COc1ccc2c(c1Br)O/C(=C\c1ccc(C(=O)O)cc1)C2=O [JKT.821A],IC50,[2]; [12],1.54 µM
same,IC50,[3]; [13],0.206 µM
same,IC50,[4]; Table 11,> 10 µM
same,solubility,[5]; [14],196 µM
N#Cc1ccc(/C=C2\Oc3c(Br)cc(Br)cc3C2=O)cc1 [JKT.632A],IC50,[2]; [15],> 5 µM
same,IC50,[3]; [16],> 5 µM
same,IC50,[4]; Table 10,10 µM
same,solubility,"[5]; Table 10, read-out: Solubility",> 200 µM
O=C1/C(=C/c2cccc(O)c2)Oc2c(Br)cc(Br)cc21 [JKT.631A],IC50,[2]; [15],> 5 µM
same,IC50,[3]; [16],> 5 µM
same,IC50,[4]; Table 10,> 10 µM
same,solubility,"[5]; Table 10, read-out: Solubility",22.6 µM
COc1c(Br)cc2c(c1Br)O/C(=C\c1ccc(O)cc1Cl)C2=O [JKT.762A],IC50,[2]; [12],> 5 µM
same,IC50,[3]; [13],> 5 µM
same,IC50,[4]; Table 11,4.4 µM
same,solubility,[5]; [14],58.6 µM
O=c1cc(-c2ccc(O)c(Br)c2)oc2ccc(Cl)cc12 [JKT.778A],IC50,[2]; [9],0.115 µM
same,IC50,[3]; [10],0.078 µM
same,IC50,[4]; Table 3,7.4 µM
same,solubility,[5]; [11],15.1 µM
O=c1cc(-c2ccc(O)c(Br)c2)oc2c(Br)cccc12 [JKT.744B],IC50,[2]; [9],0.013 µM
same,IC50,[3]; [10],0.017 µM
same,IC50,[4]; Table 3,3.7 µM
same,solubility,[5]; [11],5 µM
O=C1/C(=C/c2ccc(O)c(Br)c2)Oc2c(Br)cc(Br)cc21 [JKT.634A],IC50,[2]; [15],0.022 µM
same,Inhibition of CK2A1,[2]; in words,potent inhibition of both
same,IC50,[3]; [16],0.046 µM
same,Inhibition of CK2A2,[3]; in words,potent inhibition of both
same,IC50,[4]; Table 10,2 µM
same,solubility,"[5]; Table 10, read-out: Solubility",25.5 µM
O=c1[nH]c(-c2ccc(O)c(Cl)c2)nc2c(Br)cccc12 [JKT.828A],IC50,[2]; [6],0.652 µM
same,IC50,[3]; [7],1.41 µM
same,IC50,[4]; Table 8,> 10 µM
same,solubility,[5]; [8],58.9 µM
COc1nc(-c2ccc(O)c(Br)c2)nc2c(Br)cc(Br)cc12 [JKT.842A],IC50,[2]; [6],1.01 µM
same,IC50,[3]; [7],1.13 µM
same,IC50,[4]; Table 8,> 10 µM
same,solubility,[5]; [8],< 0.01 µM
COc1ccc2c(c1Br)O/C(=C\c1cc(Cl)c(O)c(Cl)c1)C2=O [JKT.824A],IC50,[2]; [12],0.447 µM
same,IC50,[3]; [13],0.14 µM
same,IC50,[4]; Table 11,10.1 µM
same,solubility,[5]; [14],> 200 µM
O=C1/C(=C/c2ccoc2)Oc2c(Br)cc(Br)cc21 [JKT.638A],IC50,[2]; [15],> 5 µM
same,IC50,[3]; [16],> 5 µM
same,IC50,[4]; Table 10,> 10 µM
same,solubility,"[5]; Table 10, read-out: Solubility",30.2 µM
O=c1[nH]c(-c2ccc(O)c(C(F)(F)F)c2)nc2c(Cl)cc(Cl)cc12 [JKT.809A],IC50,[2]; [6],0.082 µM
same,IC50,[3]; [7],> 5 µM
same,IC50,[4]; Table 8,> 10 µM
same,solubility,[5]; [8],< 0.01 µM
O=c1cc(-c2ccc(O)c(I)c2)oc2c(Br)cc(Br)cc12 [JKT.724A],IC50,[2]; [9],0.019 µM
same,IC50,[3]; [10],0.007 µM
same,IC50,[4]; Table 3,3.8 µM
same,solubility,[5]; [11],11.2 µM
O=c1cc(-c2ccc(O)c(Br)c2)oc2c(Br)cc(Cl)cc12 [JKT.714A],IC50,[2]; [9],0.012 µM
same,IC50,[3]; [10],0.008 µM
same,IC50,[4]; Table 3,4.6 µM
same,solubility,[5]; [11],35.2 µM
O=C1/C(=C/c2ccc(O)c(C(F)(F)F)c2)Oc2c(Br)cc(Br)cc21 [JKT.635A],IC50,[2]; [15],0.531 µM
same,IC50,[3]; [16],0.213 µM
same,IC50,[4]; Table 10,1.8 µM
same,solubility,"[5]; Table 10, read-out: Solubility",22 µM
COc1c(Br)cc2c(=O)cc(-c3ccc(O)c(Br)c3)oc2c1Br [JKT.745A],IC50,[2]; [9],0.02 µM
same,IC50,[3]; [10],0.011 µM
same,IC50,[4]; Table 3,3 µM
same,solubility,[5]; [11],> 200 µM
COc1cc(/C=C2\Oc3c(ccc(OC)c3Br)C2=O)ccc1O [JKT.820A],IC50,[2]; [12],0.007 µM
same,IC50,[3]; [13],0.006 µM
same,IC50,[4]; Table 11,> 10 µM
same,solubility,[5]; [14],< 0.01 µM
O=C1/C(=C/c2ccc(O)c(Cl)c2)Oc2c(Br)cc(Br)cc21 [JKT.726A],IC50,[2]; [12],0.044 µM
same,IC50,[3]; [13],0.026 µM
same,IC50,[4]; Table 11,3.4 µM
same,solubility,[5]; [14],7.8 µM
O=C(O)c1ccc(/C=C2\Oc3c(Br)cc(Br)cc3C2=O)cc1 [JKT.636A],IC50,[2]; [15],0.537 µM
same,Window of selectivity for CK2A2 over CK2A1,[3],nine-fold
same,IC50,[3]; [16],0.062 µM
same,IC50,[4]; Table 10,> 10 µM
same,solubility,"[5]; Table 10, read-out: Solubility",> 200 µM
COc1ccc2c(c1Br)O/C(=C\c1ccc(O)c(C(F)(F)F)c1)C2=O [JKT.819A],IC50,[2]; [12],0.54 µM
same,IC50,[3]; [13],0.66 µM
same,IC50,[4]; Table 11,5.9 µM
same,solubility,[5]; [14],17 µM
O=c1[nH]c(-c2ccc(O)c(C(F)(F)F)c2)nc2c(Br)cccc12 [JKT.831A],IC50,[2]; [6],> 5 µM
same,IC50,[3]; [7],> 5 µM
same,IC50,[4]; Table 8,> 10 µM
same,solubility,[5]; [8],139 µM
COc1c(Br)cc2c(c1Br)O/C(=C\c1ccc(O)c(I)c1)C2=O [JKT.813A],IC50,[2]; [12],0.135 µM
same,IC50,[3]; [13],0.193 µM
same,IC50,[4]; Table 11,1.1 µM
same,solubility,[5]; [14],< 0.01 µM
COc1cc(/C=C2\Oc3c(cc(Br)c(OC)c3Br)C2=O)ccc1O [JKT.764A],IC50,[2]; [12],0.521 µM
same,IC50,[3]; [13],0.383 µM
same,IC50,[4]; Table 11,12 µM
same,solubility,[5]; [14],< 0.01 µM
COc1cc(-c2nc3c(Br)cccc3c(=O)[nH]2)ccc1O [JKT.832A],IC50,[2]; [6],3.94 µM
same,IC50,[3]; [7],> 5 µM
same,IC50,[4]; Table 8,10.5 µM
same,solubility,[5]; [8],61 µM
O=c1cc(-c2ccc(O)c(Br)c2)oc2c(Cl)cc(Cl)cc12 [JKT.715A],IC50,[2]; [9],0.018 µM
same,IC50,[3]; [10],0.016 µM
same,IC50,[4]; Table 3,4.1 µM
same,solubility,[5]; [11],120 µM
COc1c(Br)cc2c(c1Br)O/C(=C\c1ccc(O)c(Cl)c1)C2=O [JKT.761A],IC50,[2]; [12],0.067 µM
same,IC50,[3]; [13],0.048 µM
same,IC50,[4]; Table 11,2.5 µM
same,solubility,[5]; [14],120 µM
O=C1/C(=C/c2ccc(O)c(I)c2)Oc2c(Br)cc(Br)cc21 [JKT.728A],IC50,[2]; [12],0.081 µM
same,IC50,[3]; [13],0.07 µM
same,IC50,[4]; Table 11,1.7 µM
same,solubility,[5]; [14],17.7 µM
O=c1cc(-c2ccc(O)c(Br)n2)oc2c(Br)cc(Br)cc12 [JKT.844A],IC50,"[2]; Table 4, read-out: CK2A1 RAD IC50",0.265 µM
same,IC50,"[3]; Table 4, read-out: CK2A2 RAD IC50",0.201 µM
same,IC50,[4]; Table 4,8 µM
same,solubility,"[5]; Table 4, read-out: Aqueous Solubility",148 µM
COc1c(Br)cc2c(=O)cc(-c3ccc(O)c(Cl)c3)oc2c1Br [JKT.748A],IC50,[2]; [9],0.024 µM
same,IC50,[3]; [10],0.009 µM
same,IC50,[4]; Table 3,3.9 µM
same,solubility,[5]; [11],24.3 µM
O=C1/C(=C/c2ccc(O)cc2Cl)Oc2c(Br)cc(Br)cc21 [JKT.727A],IC50,[2]; [12],> 5 µM
same,IC50,[3]; [13],> 5 µM
same,IC50,[4]; Table 11,4.7 µM
same,solubility,[5]; [14],73.7 µM
O=c1[nH]c(-c2ccc(O)c(Cl)c2)nc2c(Br)cc(Br)cc12 [JKT.772A],IC50,[2]; [6],0.023 µM
same,IC50,[3]; [7],0.072 µM
same,IC50,[4]; Table 8,11 µM
same,solubility,[5]; [8],< 0.01 µM
COc1c(Br)cc2c(c1Br)O/C(=C\c1cc(Cl)c(O)c(Cl)c1)C2=O [JKT.823A],IC50,[2]; [12],> 5 µM
same,IC50,[3]; [13],1.22 µM
same,IC50,[4]; Table 11,5.5 µM
same,solubility,[5]; [14],167 µM
